Laboratory results published in patent US20150073033A1, “BIOMARKERS FOR CANCER CHARACTERIZATION AND TREATMENT” (Board of Regents, The University of Texas System, priority 2011, published 2015).
Entries after “also recorded” stand apart in the source; their conditions may differ.

Legend:
PKM2 = assay: EGF-induced nuclear translocation of PKM2 (cell fractionation, immunoblotting, immunofluorescence); format: cell-based, human; conditions: U87/EGFR (and U251) cells; 30 min pretreatment before EGF 100 ng/mL; LY290042 30 μM, SU6656 4 μM, SP600125 25 μM, U0126 20 μM, AG1478 1 μM, cycloheximide 100 μg/mL
Procedure: Immunoblotting analyses (b, b) were performed with the indicated antibodies. Nuclear PCNA and cytoplasmic tubulin were used as controls. a: The indicated cells were immunostained with an anti-PKM2 antibody.
Immunoblotting and immunoprecipitation analyses were performed with the indicated antibodies. a: Nuclear fractions were prepared from U87/EGFR cells pretreated with LY290042 (30 μM), SU6656 (4 μM), SP600125 (25 μM), and U0126 (20 μM) for 30 min before EGF (100 ng/mL) for 6 h. Nuclear PCNA and cytoplasmic tubulin were used as controls. b: U87/EGFR cells were pretreated with or without U0126 (20 μM) for 30 min before EGF (100 ng/mL) for 6 h. Immunofluorescence analyses were performed with the indicated antibodies. Nuclei were stained with Hoechst 33342 (blue). c: U251 cells were stably transfected with a vector with or without expressing FLAG-ERK2 K52R (left panel) or transiently transfected with vectors expressing MEK1 Q56P and indicated FLAG-tagged ERK2 proteins (right panel). The cells were treated with or without EGF (100 ng/mL) for 6 h, and the total cell lysates and nuclear fractions were prepared. d: FLAG-PKM2 or FLAG-PKM1 was immunoprecipitated with an anti-FLAG antibody from U87/EGFR cells treated with or without EGF (100 ng/mL) for 30 min. e: Bacterially-purified GST-ERK2 immobilized on glutathione agarose beads was mixed with or without purified His-PKM2. GST pull-down analyses were performed. Ten percent of total His-PKM2 was used as an input. f: U87/EGFR cells transfected with vectors expressing the indicated FLAG-tagged ERK proteins were treated with or without EGF (100 ng/mL) for 30 min. g: U87/EGFR cells expressing the indicated FLAG-PKM2 proteins were treated with or without EGF (100 ng/mL) for 30 min.
(§1) Immunofluorescence analyses of endogenous PKM2 or transiently expressed FLAG-PKM1 were performed with the indicated antibodies. […] Immunoblotting analyses were performed with the indicated antibodies. Nuclear PCNA was used as controls for immunoblotting analyses. c: An equal volume of cytosolic and nuclear fractions were prepared from U87/EGFR cells treated with or without EGF (100 ng/mL) for 6 h. Ten microliters of protein from cytosolic and nuclear fractions were used for immunoblotting analyses with the indicated antibodies. d: Nuclear fractions were prepared from U251 cells pretreated with LY290042 (30 μM), SU6656 (4 μM), SP600125 (25 μM), and U0126 (20 μM) for 30 min before EGF (100 ng/mL) for 6 h. Immunoblotting analyses were performed with the indicated antibodies. Nuclear PCNA and cytoplasmic tubulin were used as controls. e: U87/EGFR cells were pretreated with LY290042 (30 μM), SU6656 (4 μM), SP600125 (25 μM), and U0126 (20 μM) for 30 min before EGF (100 ng/mL) for 6 h. Immunoblotting analyses were performed with the indicated antibodies.
Cytosolic and nuclear fractions were prepared. Immunoblotting analyses were performed with the indicated antibodies. b: U87/EGFR cells with depleted endogenous PKM2 and reconstituted expression of RNAi-resistant WT rPKM2 or rPKM2 S37A were treated with or without EGF (100 ng/mL) for 6 h. Total cell lysates (left panel) and nuclear fractions (right panel) were prepared.

PKM2 expression = assay: EGF-induced PKM2 upregulation, immunoblotting; format: cell-based, human; conditions: U87/EGFR cells; pretreatment before EGF 100 ng/mL 12 h; AG1478 1 μM, cycloheximide 200 μg/mL, Bis-I 2 μM, Go6976 2 μM, NF-κB activation inhibitor II 7 μM, AKT inhibitor 10 μM, TBB 50 μM, U73122 2 μM
Procedure: FIG. 56: EGFR activation results in upregulation of PKM2 expression. A-D: Immunoblotting analyses were performed with or without the indicated antibodies. A: The indicated cell lines were treated with EGF (100 ng/mL) for 12 h. B: U87 cells were stably transfected with plasmids expressing EGFR or EGFRvIII. […] D: U87/EGFR cells were pretreated with or without cycloheximide (CHX) (200 μg/mL) for 30 min before EGF (100 ng/mL) treatment for 12 h. […] The relative mRNA levels of PKM2 and PKM1 were normalized to the levels of untreated cells and β-actin mRNA. Data represent the mean±SD of three independent experiments.
FIG. 57: EGF increases PKM2 expression in a PKC- and NF-κB-dependent manner. A-D, H: Immunoblotting analyses were performed with the indicated antibodies. […] ChIP assay was performed with an anti-RelA antibody for immunoprecipitation, followed by PCR with PKM promoter-specific primers. F: An oligonucleotide containing the putative WT or mutated NF-κB binding sequence was labeled using [γ-^32P] ATP and T4 polynucleotide kinase. […] Samples were subjected to 5% polyacrylamide gel electrophoresis, and the dried gel was exposed to x-ray film. […] The relative levels of luciferase activity were normalized to the levels of untreated cells and to the levels of luciferase activity of the Renilla control plasmid. Data represent the mean±standard deviation of three independent experiments.
FIG. 58: PKCε downstream from PLCγ1, rather than TAK1, activates IKKβ and subsequently increases PKM2 expression. […] B: U87/EGFR cells were treated with TNFα (10 ng/mL) for the indicated time. C: U87/EGFR cells were treated with or without EGF (100 ng/mL) or TNFα (10 ng/mL) for 4 h. […] HIF1α was immunodepleted from the cell lysates by incubation with an anti-HIF1α antibody, which was followed by a ChIP assay with an anti-FLAG antibody for immunoprecipitation of FLAG-RelA and PCR analysis with PKM promoter-specific primers. […] F: 293T cells were transiently transfected with constitutively active (+) or kinase-dead (−) PKC mutants. […] H, I: 293T cells were transiently transfected with the indicated plasmids.

ERK1/2 = assay: EGF-induced ERK1/2 phosphorylation, immunoblotting; format: cell-based, human; conditions: U87/EGFR cells; AG1478 1 μM or U0126 20 μM 30 min before EGF 6 h
Procedure: as §1
(§2) Extraction of proteins with a modified buffer from cultured cells was followed by immunoprecipitation and immunoblotting with corresponding antibodies, as described previously (Lu et al., 1998).

IKKβ = molecular target: T1, IKKβ (Homo sapiens, UniProt O14920); conditions: small molecules IKKβ inhibitors; values from the cited references; read-out: IC50 (half maximal inhibitory concentration); cited from earlier work
T1 sequence (O14920 1-756): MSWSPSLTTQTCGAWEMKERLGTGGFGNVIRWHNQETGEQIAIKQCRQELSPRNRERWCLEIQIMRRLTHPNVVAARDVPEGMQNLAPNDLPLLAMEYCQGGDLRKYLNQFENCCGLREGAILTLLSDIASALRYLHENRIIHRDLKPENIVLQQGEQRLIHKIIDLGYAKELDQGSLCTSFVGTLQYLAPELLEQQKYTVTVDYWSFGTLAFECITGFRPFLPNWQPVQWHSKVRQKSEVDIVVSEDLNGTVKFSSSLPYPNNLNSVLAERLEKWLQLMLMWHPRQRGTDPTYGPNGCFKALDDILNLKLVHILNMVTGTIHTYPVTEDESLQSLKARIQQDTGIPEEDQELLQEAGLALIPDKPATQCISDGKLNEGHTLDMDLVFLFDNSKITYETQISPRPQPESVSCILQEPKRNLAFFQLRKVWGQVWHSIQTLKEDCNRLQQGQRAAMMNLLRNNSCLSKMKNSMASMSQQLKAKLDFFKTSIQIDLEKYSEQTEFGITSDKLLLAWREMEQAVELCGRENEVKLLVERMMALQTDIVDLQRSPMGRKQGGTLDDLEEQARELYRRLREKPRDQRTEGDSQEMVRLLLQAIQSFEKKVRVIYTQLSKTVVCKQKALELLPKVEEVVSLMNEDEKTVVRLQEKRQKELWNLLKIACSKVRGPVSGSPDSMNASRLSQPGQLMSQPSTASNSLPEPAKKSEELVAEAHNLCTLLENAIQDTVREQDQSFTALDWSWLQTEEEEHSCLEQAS

U87/EGFRvIII cells = assay: Intracranial U87/EGFRvIII xenograft, intratumoral SU6656; format: in vivo, athymic nude mice
Procedure: FIG. 19: c-Src inhibition suppresses tumorigenesis and reduces β-catenin Y333 phosphorylation and cyclin D1 expression in tumor tissues. a: U87/EGFRvIII (5×10^5) cells were intracranially injected into athymic nude mice. After 5 d, seven mice were sacrificed to examine tumor growth; the remaining mice, whose tumors were intracranially injected with SU6656 (0.015 mg/kg in 5 μL of DMSO) or DMSO every three days, were sacrificed at day 15. […] C: Immunoblotting analyses of the indicated tumor tissues were performed with the indicated antibodies.
GBM cells (5×10^5) were intracranially injected (in 5 μL of DMEM per mouse), with or without regulation of β-catenin or PKM2 expression, into 4-week-old female athymic nude mice. The intracranial injections were performed, as described in a previous publication (Gomez-Manzano et al., 2006). Seven mice per group in each experiment were included. Animals injected with U87/EGFRvIII or GSC 11 cells were sacrificed 2 weeks or 30 days after glioma cell injection, respectively. The brain of each mouse was harvested, fixed in 4% formaldehyde, and embedded in paraffin. Tumor formation and phenotype were determined by histologic analysis of H & E-stained sections.
For doxycycline induction studies, seven mice were sacrificed 14 days after GBM cell injection to examine tumor growth, whereas the remaining 14 mice in two groups were fed with or without water containing 800 μg/mL doxycycline. The water containing doxycycline was changed every three days. The mice in these two groups were sacrificed at day 30. For the SU6656 treatment studies, seven mice were sacrificed five days after U87/EGFRvIII cell injection to examine tumor growth, whereas the remaining 14 mice in two groups were treated with either DMSO or SU6656. SU6656 (0.015 mg/kg in 5 μL of DMSO) was intracranially injected into the tumor every three days, and the mice in both groups were sacrificed at day 14 after GBM cell injection.

[1] = test system: PKM2-β-catenin interaction; assay: EGF-induced association of β-catenin with PKM2 in primary GBM cells (co-IP); format: cell-based; conditions: GSC11 and GSC23 human primary GBM cells; SU6656 4 μM 30 min before EGF 100 ng/mL 6 h
From the text: (§3) FIG. 16: EGF induces the nuclear translocation of PKM2, c-Src-dependent […] Y333 phosphorylation, and a c-Src-dependent interaction between PKM2 and β-catenin in primary GBM cells. […] Nuclear PCNA and cytoplasmic tubulin were used as controls.

β-catenin = assay: EGF-induced β-catenin Tyr/Y333 phosphorylation, immunoprecipitation and immunoblotting; format: cell-based, human
Procedure: FIG. 2: c-Src phosphorylates β-catenin at Y333 upon EGFR activation. a: U87/EGFR cells were treated with SU6656 (4 μM) or an Abl inhibitor (0.2 μM) for 30 min before EGF treatment for 6 h. b: The indicated cells were treated with or without EGF for 6 h. c: β-catenin was immunoprecipitated from the nuclear fractions of U87/EGFR cells treated with or without EGF for 6 h. d, g: U87/EGFR cells transiently expressing the indicated FLAG-tagged β-catenin proteins were treated with or without EGF for 6 h. e: In vitro kinase assays were performed with purified active c-Src and purified β-catenin proteins. f: Immobilized GST-β-catenin proteins were mixed with purified His-PKM2 proteins in the presence or absence of active c-Src.
as §3

c-Src = c-Src (Homo sapiens, UniProt P12931); assay: EGF-induced c-Src activation (Y418 phosphorylation), immunoblotting; format: cell-based; conditions: U87/EGFR cells; SU6656 4 μM 30 min before EGF 100 ng/mL 6 h
Chain of c-Src (P12931 whole entry): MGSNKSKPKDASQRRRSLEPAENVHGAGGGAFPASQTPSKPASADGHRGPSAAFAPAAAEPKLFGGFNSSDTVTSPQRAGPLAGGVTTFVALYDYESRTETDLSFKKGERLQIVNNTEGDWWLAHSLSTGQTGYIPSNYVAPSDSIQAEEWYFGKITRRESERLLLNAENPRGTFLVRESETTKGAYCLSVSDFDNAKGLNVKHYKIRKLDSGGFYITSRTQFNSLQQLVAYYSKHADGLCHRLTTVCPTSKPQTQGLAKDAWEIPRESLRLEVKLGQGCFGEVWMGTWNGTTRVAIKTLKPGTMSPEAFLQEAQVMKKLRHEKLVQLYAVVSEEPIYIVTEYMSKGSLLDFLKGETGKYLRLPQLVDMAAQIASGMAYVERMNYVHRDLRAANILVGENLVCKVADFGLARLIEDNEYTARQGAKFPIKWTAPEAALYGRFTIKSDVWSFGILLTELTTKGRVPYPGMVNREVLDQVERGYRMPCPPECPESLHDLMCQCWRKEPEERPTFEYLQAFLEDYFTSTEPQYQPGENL
Procedure: as §1, §2

[2] = SU6656 0.015 mg/kg intratumoral every three days

COc1cc2ncnc(Nc3cccc(Cl)c3)c2cc1OC [AG1478]
EGF-induced nuclear accumulation/translocation of PKM2 (PKM2): abrogated | EGF-induced PKM2 upregulation/expression (PKM2 expression): blocked; also recorded: abrogated | EGF-induced phosphorylation of ERK1/2 (ERK1/2): blocked

O=C(Nc1cc(C(F)(F)F)cc(C(F)(F)F)c1)c1cc(Cl)ccc1O [IMD-0354]
IC50 (IKKβ): 280 to 3000 nM

O=C(N/N=C/c1ccc([N+](=O)[O-])cc1)c1ccc2ccccc2c1 [LASSBio-1524]
IC50 (IKKβ): 20000 nM

Cc1cc(N)ccc1N=Nc1ccc(S(=O)(=O)CCOS(=O)(=O)O)cc1 [NSC 676914]
IC50 (IKKβ): 17000 nM

C[C@]1(CO)CN(c2cc(C(=O)Nc3ccc4c(c3)-c3c(c(C(N)=O)nn3-c3ccc(F)cc3)CC4)c(Cl)cn2)C[C@@]1(C)CO [PF-184]
IC50 (IKKβ): 37 nM

O=C(Nc1cc(Cl)cc2c1[nH]c1cnccc12)c1cccnc1 [PS1145]
IC50 (IKKβ): 88 nM

CN(C)S(=O)(=O)c1ccc2c(c1)/C(=C/c1cc3c([nH]1)CCCC3)C(=O)N2 [SU6656]
EGF-induced nuclear accumulation/translocation of PKM2 (PKM2): only inhibition of MEK/ERK abrogated | tumor growth (U87/EGFRvIII cells; SU6656 0.015 mg/kg in 5 μL DMSO intratumoral every three days vs DMSO): significantly blocked tumor growth | cyclin D1 expression in tumor tissue (U87/EGFRvIII cells; [2]): inhibited | phosphorylation level of c-Src Y418 in tumor tissue (U87/EGFRvIII cells; [2]): reduced | phosphorylation level of β-catenin Y333 in tumor tissue (U87/EGFRvIII cells; [2]): reduced | EGF-induced association of β-catenin with PKM2 [1]: blocked | EGF-induced phosphorylation of β-catenin Y333 (β-catenin; GSC11 and GSC23 human primary GBM cells, SU6656 4 μM 30 min before EGF 100 ng/mL 6 h): blocked | EGF-induced Tyr phosphorylation of β-catenin (β-catenin; U87/EGFR cells, SU6656 4 μM or Abl inhibitor 0.2 μM 30 min before EGF 6 h): blocked | EGF-induced activation/phosphorylation of c-Src (Y418) (c-Src): completely abrogated; also recorded: blocked

C[C@@H]1C[C@@H]([C@H](O)CC2CC(=O)NC(=O)C2)C(=O)[C@@H](C)C1 [cycloheximide]
EGF-induced nuclear accumulation/translocation of PKM2 (PKM2): did not inhibit | EGF-induced PKM2 upregulation/expression (PKM2 expression): inhibited
